Read-outs that look alike come from different tables or passages of the source.

We go through 11 compounds from patent US10004732B2 (Novartis AG, priority 2014, dated 2018).

The target in data set [1] is T1, PI 3-kinase alpha (Homo sapiens, UniProt P42336). In words: Kinase Glo Luminescent Kinase Assay (Kglo), assay A. In kind it is biochemical. The note with it: read-out: Assay A PI3Kα IC50. In general terms: In Kinase-Glo more light means more ATP remaining.
Data set [2] addresses T2, PI 3-kinase beta (Homo sapiens, UniProt P42338). In words: Kinase Glo Luminescent Kinase Assay (Kglo), assay B. Format: biochemical. The note with it: read-out: Assay B PI3Kβ IC50.
The target in the next data set is Vps34 (Homo sapiens, UniProt Q8NEB9). In words: Kinase Glo Luminescent Kinase Assay (Kglo), assay C. The note with it: read-out: Assay C VPS34 IC50. Format: biochemical.
In the next data set the target is PI 4-kinase beta (Homo sapiens, UniProt Q9UBF8). The data set is described as follows: Kinase Glo Luminescent Kinase Assay (Kglo), assay D. In kind it is biochemical. The note with it: read-out: Assay D PI4Kβ IC50.
The target of data set [3] is T3, PI 3-kinase gamma (Homo sapiens, UniProt P48736). In words: TR-FRET Adapta assay, assay E. Format: biochemical. The note with it: read-out: Assay E PI3Kγ IC50. (In TR-FRET formats the signal depends on donor and acceptor labels being close together.)
The target of another data set is mTOR (Homo sapiens, UniProt P42345). The data set is described as follows: Lanthascreen kinase binding assay, assay G. The note with it: read-out: Assay G mTOR IC50.
In data set [4] the target is T1, PI 3-kinase alpha. The data set is described as follows: Cellular assay H1, p-Akt (S473) in Rat-1 cells, Surefire format. In kind it is cell-based. The note with it: non-asterisked data: version H1 (Surefire format), Rat-1 cells; read-out: Assay H PI3Kα IC50.
Data set [5] addresses T2, PI 3-kinase beta. In words: Cellular assay I1, p-Akt (S473) in Rat-1 cells, Surefire format. The note with it: non-asterisked data: version I1 (Surefire format), Rat-1 cells; read-out: Assay I PI3Kβ IC50. In kind it is cell-based.
For data set [6], the target named is T4, PI 3-kinase delta (Homo sapiens, UniProt O00329). The data set is described as follows: Cellular assay J1, p-Akt (S473) in Rat-1 cells, Surefire format. The note with it: non-asterisked data: version J1 (Surefire format), Rat-1 cells; read-out: Assay J PI3Kδ IC50. Format: cell-based.
Target sequence in this assay (O00329 whole entry): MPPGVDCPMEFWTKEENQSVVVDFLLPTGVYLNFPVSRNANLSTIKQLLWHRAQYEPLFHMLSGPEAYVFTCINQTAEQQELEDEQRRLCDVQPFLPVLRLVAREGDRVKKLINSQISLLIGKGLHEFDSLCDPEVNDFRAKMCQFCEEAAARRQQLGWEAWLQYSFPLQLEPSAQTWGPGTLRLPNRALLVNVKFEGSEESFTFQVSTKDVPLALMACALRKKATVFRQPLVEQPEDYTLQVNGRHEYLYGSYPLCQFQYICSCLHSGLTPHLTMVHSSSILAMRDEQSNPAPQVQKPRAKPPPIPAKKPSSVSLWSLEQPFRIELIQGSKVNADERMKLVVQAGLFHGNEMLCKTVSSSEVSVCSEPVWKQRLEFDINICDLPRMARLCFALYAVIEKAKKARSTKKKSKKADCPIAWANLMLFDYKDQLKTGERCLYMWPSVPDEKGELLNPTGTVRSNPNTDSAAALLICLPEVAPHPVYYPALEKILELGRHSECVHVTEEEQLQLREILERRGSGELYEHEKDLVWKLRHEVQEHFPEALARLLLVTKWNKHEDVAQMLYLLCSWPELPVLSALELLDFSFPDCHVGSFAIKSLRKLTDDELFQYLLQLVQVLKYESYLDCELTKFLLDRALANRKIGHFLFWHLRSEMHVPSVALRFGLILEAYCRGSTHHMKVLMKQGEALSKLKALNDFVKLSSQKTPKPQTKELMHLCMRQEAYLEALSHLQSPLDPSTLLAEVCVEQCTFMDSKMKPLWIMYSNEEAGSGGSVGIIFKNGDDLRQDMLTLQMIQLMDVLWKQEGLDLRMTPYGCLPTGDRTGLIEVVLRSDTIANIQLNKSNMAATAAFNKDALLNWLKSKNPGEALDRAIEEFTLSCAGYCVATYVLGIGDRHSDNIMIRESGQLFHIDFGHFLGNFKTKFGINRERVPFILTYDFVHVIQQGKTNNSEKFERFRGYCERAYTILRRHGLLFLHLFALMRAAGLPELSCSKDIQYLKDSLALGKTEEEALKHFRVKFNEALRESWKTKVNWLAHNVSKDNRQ
Target sequence in this assay (Q63787 whole entry partner): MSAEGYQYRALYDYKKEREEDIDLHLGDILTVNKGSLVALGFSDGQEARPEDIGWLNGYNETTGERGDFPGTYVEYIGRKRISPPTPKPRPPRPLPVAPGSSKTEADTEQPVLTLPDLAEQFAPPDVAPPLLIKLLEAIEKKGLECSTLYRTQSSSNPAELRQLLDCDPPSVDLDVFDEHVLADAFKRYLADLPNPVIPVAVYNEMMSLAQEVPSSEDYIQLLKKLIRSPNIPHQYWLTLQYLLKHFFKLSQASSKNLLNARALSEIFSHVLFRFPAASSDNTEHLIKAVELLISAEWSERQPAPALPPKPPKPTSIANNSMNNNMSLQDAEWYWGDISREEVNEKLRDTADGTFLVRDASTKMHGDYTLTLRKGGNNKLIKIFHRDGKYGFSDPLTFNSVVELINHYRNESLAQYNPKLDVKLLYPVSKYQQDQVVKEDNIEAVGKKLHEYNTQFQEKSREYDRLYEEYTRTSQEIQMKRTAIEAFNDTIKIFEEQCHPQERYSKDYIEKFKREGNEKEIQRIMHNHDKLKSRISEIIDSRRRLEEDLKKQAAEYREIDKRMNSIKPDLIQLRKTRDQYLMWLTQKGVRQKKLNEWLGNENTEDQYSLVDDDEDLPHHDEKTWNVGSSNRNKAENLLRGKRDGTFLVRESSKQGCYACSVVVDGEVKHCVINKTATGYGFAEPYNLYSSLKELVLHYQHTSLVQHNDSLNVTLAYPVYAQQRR
From the text: Cellular Assays for PI 3-Kinase Alpha (H1), Beta (I1) and Delta (J1): Surefire Format
AlphaScreen (Amplified Luminescent Proximity Homogeneous Assay, ALPHA, Perkin Elmer) is a non-radioactive bead-based proximity assay technology to study biomolecular interactions in a homogenous microtiter plate format. The brand name SureFire denotes AlphaScreen assays that are adapted to quantify the phosphorylation of endogenous cellular proteins in cell lysates, by using matched antibody pairs, which consist of an anti-phospho-kinase and an anti-kinase antibody. The assay allows characterization of kinase signaling in cells as well as measurement of kinase inhibitor effects.
Using Rat-1 cells stably expressing myr-HA-tagged versions of the human PI3Kdelta, PI3Kalpha, or PI3Kbeta p110 catalytic subunit isoforms, the assay was developed as a two-plate protocol in a 384-well format.
For compound testing, the cells were seeded at a density of 4000 (Rat-1_PI3Kdelta), 7500 (Rat-1_PI3Kalpha), or 6200 (Rat-1_PI3Kbeta) cells in 20 μl complete growth medium into cell culture treated 384-well plates and were grown at 37° C./5% CO2/90% humidity for 24 h. Shortly before compound transfer, the complete medium was removed, 30 μl assay buffer (DMEM high glucose, 1×MEM NEAA, 10 mM HEPES, 2 mM L-glutamine, 0.1% (w/v) BSA) was added and 10 μl of the compound predilutions were transferred to the cells.
In data set [7] the target is T3, PI 3-kinase gamma. The data set is described as follows: Cellular U937 AKT assay K1 (MSD). In kind it is cell-based. The note with it: U937 cells, K1 format; read-out: Assay K1 PI3Kγ IC50.
In data set [8] the test system is IL-8-induced neutrophil shape change in human whole blood. In words: Whole blood neutrophil shape change assay (L). The note with it: IL-8, human whole blood, read-out: Assay L WBSC IC50. Format: cell-based.
Method: Whole Blood Neutrophil Shape Change Assay (L)
IL-8 was made up to 2 μM stocks in 0.1% bovine serum albumin/PBS and stored at −80° C. On the day IL-8 was diluted in PBS (phosphate buffered saline) 10 minutes before use. IL-8 was used at final concentration of 2 nM and a concentration range from 0.003 to 200 nM for the donor dose response curve.
Assay fixative solution was prepared fresh each day from 10× concentrated CellFIX™ solution diluted 1:10 in sterile distilled water and then 1:4 with PBS. Assay fixative solution was kept on ice prior to use.
A 10× lysis buffer was prepared in advance by dissolving 20.75 g NH4Cl and 2.5 g KHCO3 in 250 ml sterile H2O. This 10× lysis buffer was filtered under sterile conditions and stored for up to two weeks at 4° C. On the day a 1× lysis solution was prepared with sterile distilled H2O and kept on ice prior to use.
The test compounds were prepared as 10 mM stock solutions in 100% DMSO and were stored at 4° C. Once in use for an assay 10 mM stock compounds were thawed and stored at RT protected from light. Compound dilutions were prepared fresh on the day. The first series of dilutions in 100% DMSO were done first thing in the morning. Only once blood had been collected and arrived in laboratory was the next set of dilutions into PBS carried out (1:10 PBS, 10% DMSO). This limited the exposure of diluted compound to plastic and made sure the exposure timing was consistent between assays.
Compound dilutions in 100% DMSO were prepared as described previously. Human whole blood was collected in K2 EDTA Vacutainers. Once blood was in the laboratory, compound dilutions into PBS were carried out as described previously and depicted in Table 1.
The outer wells of the deep well assay plate were filled with 1200 μl of sterile distilled H2O in an effort to limit edge effects (rows A1-H1, A1-A12, A12-H12).
An IL-8 dose response was determined for each blood donor examined, to monitor the donor response to IL-8. At this step in assay preparation for the IL-8 dose response samples 10 μl of PBS was added to designated wells. In addition the assay window without DMSO was also assessed each day. For such samples at this step in assay preparation 10 μl of PBS was added in the place of 10% DMSO.
Lids were placed on the 96 well plates and samples were incubated for 15 minutes at 37° C. in a water-bath.
Following the compound pre-incubation 10× final IL-8 was added to appropriate wells (10 μl of 20 nM working stock IL-8, final IL-8 concentration in blood=2 nM) and 10 μl of PBS was added to the un-stimulated controls. 10× final dose response range IL-8 was also added to designated wells (final concentration range on assay plate was 200 nM to 0.0005 nM, 1:5 serial dilution in PBS). The IL-8 and PBS were added to appropriate wells across all assay plates in the same sequence as the blood to compound addition. […] Samples were incubated for 5 minutes at 37° C. in a water-bath. Following the incubation sample plates were transferred to ice where 250 μl of chilled Assay Fixative Buffer was added promptly to all wells.
Samples were incubated on ice for 7 minutes (no mixing). […] Once added samples were mixed once and incubated on ice for 30 minutes to achieve uniform red blood cells lysis. After lysis, 200 μl of sample was transferred to a 96 well microplate on ice. […] Granulocytes were identified based on differential side scatter (SSC) and forward scatter (FSC) characteristics.
Data set [9] addresses T4, PI 3-kinase delta. In words: TR-FRET Adapta assay, assay F. The note with it: read-out: Assay F PI3Kδ IC50.
Target sequence in this assay (O00329 whole entry): as the sequence (O00329 whole entry) above
Target sequence in this assay (P27986 461-568 partner): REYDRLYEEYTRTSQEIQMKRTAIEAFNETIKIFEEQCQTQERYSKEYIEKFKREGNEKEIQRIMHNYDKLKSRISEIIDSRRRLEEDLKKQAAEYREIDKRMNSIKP
Data set [10] can be described thus: Microsomal clearance assay (M). The note with it: intrinsic clearance in rat liver microsomes. On the technique in general: Liver microsomes are vesicles of endoplasmic reticulum, rich in cytochrome P450 enzymes.
Method: The experiments were performed in 96-well glass plates at 37° C. on an automated Tecan EVO platform. Test compounds at a concentration of 10 mM in pure DMSO were diluted 1:1000 in water to 10 μM. […] Reactions were initiated by the addition of 150 μL of a cofactor solution containing 2 mM NADPH.

Sequence of Vps34 (Q8NEB9 whole entry, species assumed): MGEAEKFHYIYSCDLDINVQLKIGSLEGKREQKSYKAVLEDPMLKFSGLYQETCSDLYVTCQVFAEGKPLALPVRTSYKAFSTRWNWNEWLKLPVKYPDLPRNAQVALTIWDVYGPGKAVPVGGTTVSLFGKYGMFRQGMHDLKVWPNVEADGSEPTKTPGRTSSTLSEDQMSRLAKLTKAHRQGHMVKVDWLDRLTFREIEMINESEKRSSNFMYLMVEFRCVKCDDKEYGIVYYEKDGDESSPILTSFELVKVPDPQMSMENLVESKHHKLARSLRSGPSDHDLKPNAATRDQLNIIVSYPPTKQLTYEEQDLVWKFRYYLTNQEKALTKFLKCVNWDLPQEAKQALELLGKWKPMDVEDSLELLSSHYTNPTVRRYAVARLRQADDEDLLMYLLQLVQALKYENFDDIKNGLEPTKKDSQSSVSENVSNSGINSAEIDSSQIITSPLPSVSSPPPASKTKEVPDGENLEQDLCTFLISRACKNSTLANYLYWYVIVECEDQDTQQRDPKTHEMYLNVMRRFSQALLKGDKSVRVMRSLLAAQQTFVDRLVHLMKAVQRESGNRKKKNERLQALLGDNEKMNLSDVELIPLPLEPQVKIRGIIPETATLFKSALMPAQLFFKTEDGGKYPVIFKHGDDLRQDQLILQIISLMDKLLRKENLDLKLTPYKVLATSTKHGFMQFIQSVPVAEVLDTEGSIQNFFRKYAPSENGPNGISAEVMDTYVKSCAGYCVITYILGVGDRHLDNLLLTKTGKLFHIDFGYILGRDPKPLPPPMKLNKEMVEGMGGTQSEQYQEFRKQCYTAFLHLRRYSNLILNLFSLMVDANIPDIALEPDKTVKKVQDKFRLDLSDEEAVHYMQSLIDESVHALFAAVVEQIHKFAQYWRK
T3 sequence (P48736 whole entry): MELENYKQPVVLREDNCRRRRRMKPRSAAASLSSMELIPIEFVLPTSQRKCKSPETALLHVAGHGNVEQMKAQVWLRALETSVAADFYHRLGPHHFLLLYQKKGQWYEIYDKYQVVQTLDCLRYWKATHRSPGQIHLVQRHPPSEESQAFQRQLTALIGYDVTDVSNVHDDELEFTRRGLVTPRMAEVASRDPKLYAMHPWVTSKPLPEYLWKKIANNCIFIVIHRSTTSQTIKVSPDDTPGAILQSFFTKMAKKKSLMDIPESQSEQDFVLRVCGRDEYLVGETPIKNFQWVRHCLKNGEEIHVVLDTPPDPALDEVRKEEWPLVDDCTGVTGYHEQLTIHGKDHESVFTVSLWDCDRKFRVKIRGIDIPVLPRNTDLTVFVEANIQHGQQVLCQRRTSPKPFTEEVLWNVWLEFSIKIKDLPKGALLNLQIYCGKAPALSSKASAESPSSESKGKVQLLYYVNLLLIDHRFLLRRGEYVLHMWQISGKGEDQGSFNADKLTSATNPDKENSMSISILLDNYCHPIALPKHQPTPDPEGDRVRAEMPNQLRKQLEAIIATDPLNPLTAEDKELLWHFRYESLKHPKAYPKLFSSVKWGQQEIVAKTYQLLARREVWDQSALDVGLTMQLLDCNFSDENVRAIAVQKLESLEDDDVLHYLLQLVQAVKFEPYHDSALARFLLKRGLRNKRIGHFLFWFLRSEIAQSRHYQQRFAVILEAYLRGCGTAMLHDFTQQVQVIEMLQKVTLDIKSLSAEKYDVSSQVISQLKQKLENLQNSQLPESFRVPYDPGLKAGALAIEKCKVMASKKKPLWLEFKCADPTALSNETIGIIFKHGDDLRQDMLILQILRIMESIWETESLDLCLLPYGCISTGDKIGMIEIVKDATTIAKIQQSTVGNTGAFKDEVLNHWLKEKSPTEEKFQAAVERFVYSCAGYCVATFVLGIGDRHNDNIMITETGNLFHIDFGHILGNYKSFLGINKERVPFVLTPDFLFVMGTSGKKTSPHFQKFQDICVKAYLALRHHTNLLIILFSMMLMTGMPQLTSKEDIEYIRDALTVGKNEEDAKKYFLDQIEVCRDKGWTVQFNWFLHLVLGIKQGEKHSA
Sequence of PI 4-kinase beta (Q9UBF8 whole entry): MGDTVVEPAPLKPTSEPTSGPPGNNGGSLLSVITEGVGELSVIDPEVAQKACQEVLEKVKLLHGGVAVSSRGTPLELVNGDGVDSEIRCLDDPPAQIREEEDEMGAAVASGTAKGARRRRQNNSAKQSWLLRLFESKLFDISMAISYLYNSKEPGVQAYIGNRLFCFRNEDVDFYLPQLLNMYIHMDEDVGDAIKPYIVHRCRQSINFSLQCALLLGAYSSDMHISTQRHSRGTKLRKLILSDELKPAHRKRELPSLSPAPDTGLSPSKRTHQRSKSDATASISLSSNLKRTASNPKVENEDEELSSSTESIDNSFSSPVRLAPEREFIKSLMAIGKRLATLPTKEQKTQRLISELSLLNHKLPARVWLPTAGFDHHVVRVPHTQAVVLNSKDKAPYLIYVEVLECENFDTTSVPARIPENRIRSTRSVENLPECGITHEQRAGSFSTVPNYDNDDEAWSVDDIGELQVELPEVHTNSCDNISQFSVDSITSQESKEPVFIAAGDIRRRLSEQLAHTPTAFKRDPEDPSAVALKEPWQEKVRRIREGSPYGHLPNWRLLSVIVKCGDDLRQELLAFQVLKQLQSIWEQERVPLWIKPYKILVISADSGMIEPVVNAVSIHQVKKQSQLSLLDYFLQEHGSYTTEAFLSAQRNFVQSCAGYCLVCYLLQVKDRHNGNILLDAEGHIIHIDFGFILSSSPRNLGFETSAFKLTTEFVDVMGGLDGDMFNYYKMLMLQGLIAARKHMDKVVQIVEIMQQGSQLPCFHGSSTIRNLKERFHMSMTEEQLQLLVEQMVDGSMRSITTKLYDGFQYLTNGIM
Method for mTOR: Lanthascreen™ Kinase Binding Assay for mTOR (G)
Binding of an inhibitor to the kinase competes for binding with the tracer, resulting in a loss of FRET.
50 nL of compound dilutions were dispensed onto white 384-well small volume polystyrene plate.

As usually defined, the IC50 is the midpoint of a concentration-inhibition curve. For the compound `Cc1ncn(-c2nc(-c3cc(S(=O)(=O)NCCC(C)(C)O)ccc3C)cnc2N)n1` [Example 65, 3-(5-Amino-6-(3-methyl-1H-1,2,4-triazol-1-yl)pyrazin-2-yl)-N-(3-hydroxy-3-methylbutyl)-4-methylbenzenesulfonamide], the IC50 at PI 3-kinase alpha [1] is 440 nM; at PI 3-kinase beta [2] it was 4030 nM; on Vps34, over 9100 nM; on PI 4-kinase beta, over 9100 nM; at PI 3-kinase gamma [3], 22 nM; on mTOR, over 9100 nM. Further, the half-inhibitory concentration (IC50) at PI 3-kinase alpha [4] is 1450 nM; on PI 3-kinase beta [5] it was over 10000 nM; at PI 3-kinase delta [6], 1440 nM; on PI 3-kinase gamma [7] it was 155 nM; in [8] (Homo sapiens, Neutrophil), 802 nM; at PI 3-kinase delta [9], 240 nM. Also, the “Assay M RLM CI(int)” value in data set [10] was determined as 87 µL/min/mg.

Turning to `Cc1ccc(S(=O)(=O)NCCC(C)(C)O)cc1-c1cnc(N)c(-n2cncn2)n1` [Example 64, 3-(5-Amino-6-(1H-1,2,4-triazol-1-yl)pyrazin-2-yl)-N-(3-hydroxy-3-methylbutyl)-4-methylbenzenesulfonamide], the half-inhibitory concentration (IC50) at PI 3-kinase alpha [1] was 370 nM; at PI 3-kinase beta [2], 3850 nM; on Vps34, 8490 nM; on PI 4-kinase beta, 6610 nM; on PI 3-kinase gamma [3], 46 nM; at mTOR, over 9100 nM. The IC50 on PI 3-kinase alpha [4] is 1240 nM; at PI 3-kinase beta [5] it was 4370 nM; on PI 3-kinase delta [6] it was 1190 nM; on PI 3-kinase gamma [7], 189 nM; in data set [8] (Homo sapiens, Neutrophil) it was 543 nM; at PI 3-kinase delta [9], 250 nM. In data set [10], the “Assay M RLM CI(int)” value is 61 µL/min/mg.

With `CCc1nnc(-c2nc(-c3cc(S(=O)(=O)N[C@H]4CC[C@H](O)CC4)ccc3C)cnc2N)o1` [Example 138, Trans-3-(5-Amino-6-(5-ethyl-1,3,4-oxadiazol-2-yl)pyrazin-2-yl)-N-((1r,4r)-4-hydroxycyclohexyl)-4-methylbenzenesulfonamide], the IC50 is 2700 nM on PI 3-kinase alpha [1]; over 9100 nM at PI 3-kinase beta [2]; over 9100 nM on Vps34; 8540 nM on PI 4-kinase beta; 4 nM on PI 3-kinase gamma [3]; over 9100 nM at mTOR. The half-maximal inhibitory concentration (IC50) on PI 3-kinase alpha [4] is 8800 nM; at PI 3-kinase beta [5], over 10000 nM; at PI 3-kinase delta [6] it was 3550 nM; at PI 3-kinase gamma [7], 260 nM; in [8] (Homo sapiens, Neutrophil), 4830 nM; at PI 3-kinase delta [9], 860 nM. The “Assay M RLM CI(int)” value in [10] is 31 µL/min/mg.

On to `CCn1cc(-c2nc(-c3cc(S(=O)(=O)NCCC(C)(C)O)ccc3C)cnc2N)cn1` [Example 119.34], for which the half-inhibitory concentration (IC50) at PI 3-kinase alpha [1] was 180 nM; on PI 3-kinase beta [2], 3510 nM; on Vps34 it was over 9100 nM; on PI 4-kinase beta it was 4250 nM; on PI 3-kinase gamma [3] it was 13 nM; on mTOR, 6590 nM. In addition, the 50% inhibitory concentration (IC50) at PI 3-kinase alpha [4] is 2270 nM; on PI 3-kinase beta [5], 7420 nM; on PI 3-kinase delta [6] it was 1270 nM; on PI 3-kinase gamma [7], 41 nM; in data set [8] (Homo sapiens, Neutrophil), 1490 nM; at PI 3-kinase delta [9] it was 220 nM. The “Assay M RLM CI(int)” value in [10] stood at 49 µL/min/mg.

Consider `Cc1ccc(S(=O)(=O)NCC2(CO)COC2)cc1-c1cnc(N)c(-n2cncn2)n1` [Example 35, 3-(5-Amino-6-[1,2,4]triazol-1-yl-pyrazin-2-yl)-N-(3-hydroxymethyl-oxetan-3-ylmethyl)-4-methyl-benzenesulfonamide], for which the IC50 is 630 nM on PI 3-kinase alpha [1]; 1900 nM on PI 3-kinase beta [2]; over 10000 nM on Vps34; 3700 nM on PI 4-kinase beta; 25 nM on PI 3-kinase gamma [3]; 5600 nM on mTOR. In addition, the IC50 was over 10000 nM at PI 3-kinase alpha [4]; over 10000 nM at PI 3-kinase beta [5]; over 10000 nM at PI 3-kinase delta [6]; 418 nM on PI 3-kinase gamma [7]; 669 nM in data set [8] (Homo sapiens, Neutrophil); 990 nM at PI 3-kinase delta [9]. Further, the “Assay M RLM CI(int)” value in data set [10] turned out to be 25 µL/min/mg.

`Cc1ccc(S(=O)(=O)NCCC(C)(C)O)cc1-c1cnc(N)c(-c2cnn(Cc3ccccn3)c2)n1` [Example 119.37]: the IC50 at PI 3-kinase alpha [1] is 180 nM; at PI 3-kinase beta [2], 3000 nM; on Vps34, over 9100 nM; on PI 4-kinase beta, 5300 nM; on PI 3-kinase gamma [3], 24 nM; at mTOR, over 9100 nM. Further, the IC50 at PI 3-kinase alpha [4] was 3020 nM; at PI 3-kinase beta [5] it was 2870 nM; at PI 3-kinase delta [6], 1140 nM; at PI 3-kinase gamma [7], 93 nM; in [8] (Homo sapiens, Neutrophil), 581 nM; on PI 3-kinase delta [9], 40 nM. For the same compound, in [10], the “Assay M RLM CI(int)” value worked out at 78 µL/min/mg.

`CCN1CCC[C@@H]1CNS(=O)(=O)c1ccc(C)c(-c2cnc(N)c(-n3cncn3)n2)c1` [Example 127.12]: the IC50 on PI 3-kinase alpha [1] is 3500 nM; on PI 3-kinase beta [2] it was 1500 nM; at Vps34 it was over 10000 nM; at PI 4-kinase beta, over 10000 nM; at PI 3-kinase gamma [3], 91 nM; at mTOR, over 10000 nM. For the same compound, the IC50 at PI 3-kinase alpha [4] was determined as 6560 nM; at PI 3-kinase beta [5], 1540 nM; at PI 3-kinase delta [6] it was 800 nM; on PI 3-kinase gamma [7] it was 359 nM; in data set [8] (Homo sapiens, Neutrophil) it was 1210 nM; at PI 3-kinase delta [9], 570 nM. The “Assay M RLM CI(int)” value in data set [10] was determined as 233 µL/min/mg.

As to `Cc1ccc(S(=O)(=O)NCCC(C)(C)O)cc1-c1cnc(N)c(-n2cnc(C3CC3)n2)n1` [Example 26, 3-[5-Amino-6-(3-cyclopropyl-[1,2,4]triazol-1-yl)-pyrazin-2-yl]-N-(3-hydroxy-3-methyl-butyl)-4-methyl-benzenesulfonamide], the half-inhibitory concentration (IC50) at PI 3-kinase alpha [1] was 310 nM; at PI 3-kinase beta [2], 6380 nM; at Vps34, over 9100 nM; on PI 4-kinase beta, 5470 nM; on PI 3-kinase gamma [3], 3 nM; at mTOR, over 9100 nM. For the same compound, the IC50 on PI 3-kinase alpha [4] was found to be 1100 nM; on PI 3-kinase beta [5], 2030 nM; at PI 3-kinase delta [6] it was 760 nM; on PI 3-kinase gamma [7], 54 nM; in data set [8] (Homo sapiens, Neutrophil), 683 nM; on PI 3-kinase delta [9], 70 nM. The “Assay M RLM CI(int)” value in data set [10] worked out at 223 µL/min/mg.

In the case of `Cc1ccc(S(=O)(=O)NC[C@H]2C[C@@H](O)C2)cc1-c1cnc(N)c(-n2cncn2)n1` [Example 72, 3-(5-Amino-6-(1H-1,2,4-triazol-1-yl)pyrazin-2-yl)-N-(((1s,3s)-3-hydroxycyclobutyl)methyl)-4-methylbenzenesulfonamide], the 50% inhibitory concentration (IC50) on PI 3-kinase alpha [1] was 580 nM; on PI 3-kinase beta [2] it was 2670 nM; on Vps34, over 9100 nM; on PI 4-kinase beta, over 9100 nM; on PI 3-kinase gamma [3], 34 nM; on mTOR it was over 9100 nM. Moreover, the IC50 stood at 3110 nM at PI 3-kinase alpha [4]; 6030 nM at PI 3-kinase beta [5]; 2640 nM at PI 3-kinase delta [6]; 293 nM on PI 3-kinase gamma [7]; 723 nM in [8] (Homo sapiens, Neutrophil); 390 nM on PI 3-kinase delta [9]. Moreover, the “Assay M RLM CI(int)” value in data set [10] was determined as 41 µL/min/mg.

As for `COc1ccncc1-c1nc(-c2cc(S(=O)(=O)NCCC(C)(C)O)ccc2C)cnc1N` [Example 119.2], the IC50 at PI 3-kinase alpha [1] is 450 nM; at PI 3-kinase beta [2], over 9100 nM; on Vps34, over 9100 nM; at PI 4-kinase beta, over 9100 nM; at PI 3-kinase gamma [3], 50 nM; on mTOR, over 9100 nM. Besides, the 50% inhibitory concentration (IC50) at PI 3-kinase alpha [4] is 2740 nM; on PI 3-kinase beta [5], 4070 nM; at PI 3-kinase delta [6], 2380 nM; at PI 3-kinase gamma [7], 333 nM; in data set [8] (Homo sapiens, Neutrophil) it was 2180 nM; on PI 3-kinase delta [9] it was 250 nM. For the same compound, the “Assay M RLM CI(int)” value in [10] worked out at 101 µL/min/mg.

Take `Cc1ccc(S(=O)(=O)N[C@H]2CC[C@@](C)(O)CC2)cc1-c1cnc(N)c(-n2cncn2)n1` [Example 69b, 3-(5-amino-6-(1H-1,2,4-triazol-1-yl)pyrazin-2-yl)-N-(cis-4-hydroxy-4-methylcyclohexyl)-4-methylbenzenesulfonamide]: the IC50 was 390 nM on PI 3-kinase alpha [1]; 1400 nM on PI 3-kinase beta [2]; over 10000 nM at Vps34; over 10000 nM on PI 4-kinase beta; 57 nM on PI 3-kinase gamma [3]; 9600 nM on mTOR. For the same compound, the IC50 was determined as 6680 nM at PI 3-kinase alpha [4]; 8470 nM at PI 3-kinase beta [5]; 5180 nM on PI 3-kinase delta [6]; 135 nM at PI 3-kinase gamma [7]; 1950 nM in [8]; 690 nM on PI 3-kinase delta [9]. Also, the “Assay M RLM CI(int)” value in data set [10] turned out to be 227 µL/min/mg.
